Data on three compounds can be found in ChEMBL document CHEMBL5614422, “Design, synthesis and biological evaluation of N-salicyloyl tryptamine derivatives as multifunctional neuroprotectants for the treatment of ischemic stroke” (Eur J Med Chem, 2024).

Data set [1] is described as follows: Aqueous solubility of the compound incubated for 72 hrs under shaking condition by HPLC analysis. The data set is classed as physicochemical.
The nature of data set [2]: Acute toxicity in Kunming mouse assessed as effect on lung at 500 mg/kg, ip measured after 14 days by H and E staining based analysis. It is filed as organism-based. Particulars: in vivo, 336 h, time 14 day.
The nature of data set [3]: Half life in 12 hrs fasted male Sprague-Dawley rat at 50 mg/kg measured upto 48 hrs by LC-MS/MS analysis. It is filed as ADME, organism-based. Particulars: in vivo.
Data set [4] is described as follows: Acute toxicity in Kunming mouse assessed as effect on heart at 500 mg/kg, ip measured after 14 days by H and E staining based analysis. It is filed as organism-based. To be noted: in vivo, 336 h, time 14 day.
Data set [5] in a line: Acute toxicity in Kunming mouse assessed as effect on body weight at 500 mg/kg, ip measured after 14 days. It is filed as organism-based. Particulars: in vivo, 336 h, time 14 day.
The nature of data set [6]: Acute toxicity in Kunming mouse assessed as effect on kidney at 500 mg/kg, ip measured after 14 days by H and E staining based analysis. Particulars: in vivo, 336 h, time 14 day. It is filed as organism-based.
A short description of data set [7]: Acute toxicity in Kunming mouse assessed as effect on spleen at 500 mg/kg, ip measured after 14 days by H and E staining based analysis. Particulars: in vivo, 336 h, time 14 day. The data set is classed as organism-based.
A short description of data set [8]: Acute toxicity in Kunming mouse assessed as effect on liver at 500 mg/kg, ip measured 14 days by H and E staining based analysis. It is filed as organism-based. To be noted: in vivo, 336 h, time 14 day.
Data set [9] is described as follows: Permeability of the compound by PAMPA method. It is filed as ADME. Particulars: read-out: permeability. On the technique in general: PAMPA measures passive passage across an artificial lipid membrane.
Data set [10] concerns HT-22. The experiment in a line: Anti-apoptotic activity in OGD/R mouse HT-22 cells assessed as late apoptotic cells at 1 uM by annexin V-FITC and PI staining based flow cytometry analysis (reference value: 7.26%). The data set is classed as functional. In general terms: A flow cytometer gives signals particle by particle.
Data set [11] concerns HT-22. The experiment in a line: Antioxidant activity against OGD/R induced damage in mouse HT-22 cells assessed as decrease in proportion of mitochondrial depolarized cells at 10 uM by JC-1 fluorescence based flow cytometry analysis (reference value: 91.7%). It is filed as functional. The arrangement: scale not given: the % may be the effect or the level left.
Data set [12] concerns HT-22. The experiment in a line: Antioxidant activity against OGD/R induced damage in mouse HT-22 cells assessed as decrease in proportion of mitochondrial depolarized cells at 1 uM by JC-1 fluorescence based flow cytometry analysis (reference value: 91.7%). It is filed as functional. The arrangement: scale not given: the % may be the effect or the level left.
Data set [13] has as its system HT-22. The experiment in a line: Anti-apoptotic activity in OGD/R mouse HT-22 cells assessed as viable cells at 10 uM by annexin V-FITC and PI staining based flow cytometry analysis (reference value: 83.09%). It is filed as functional. Particulars: read-out: Activity.
The test system of data set [14] is HT-22. The experiment in a line: Anti-apoptotic activity in OGD/R mouse HT-22 cells assessed as necrotic cells at 1 uM by annexin V-FITC and PI staining based flow cytometry analysis (reference value: 0.14%). It is filed as functional.
In data set [15] the test system is HT-22. The experiment in a line: Neuroprotective activity against OGD/R induced cell damage in mouse HT-22 cells assessed as cell viability at 10 uM measured after 24 hrs by MTT assay (reference value: 69.01 +/-2.90%). It is filed as functional. Particulars: read-out: Activity. (Formazan colour is commonly taken as a measure of viable cells.)
A short description of data set [16]: Drug concentration in male Sprague-Dawley rat plasma at 60 mg/kg, ip measured after 4 hrs by LC-MS analysis. The data set is classed as ADME, organism-based.
Data set [17] in a line: Drug concentration in male Sprague-Dawley rat plasma at 60 mg/kg, ip measured after 2 hrs by LC-MS analysis. It is filed as ADME, organism-based.
Data set [18] in a line: Drug concentration in male Sprague-Dawley rat Cerebrospinal fluid at 60 mg/kg, ip measured after 4 hrs by LC-MS analysis. It is filed as ADME, organism-based. Particulars: read-out: Ct.
In data set [19] the test system is HT-22. The experiment in a line: Anti-apoptotic activity in OGD/R mouse HT-22 cells assessed as necrotic cells at 5 uM by annexin V-FITC and PI staining based flow cytometry analysis (reference value: 0.14%). The data set is classed as functional.
Data set [20] concerns HT-22. The experiment in a line: Anti-apoptotic activity in OGD/R mouse HT-22 cells assessed as early apoptotic cells at 1 uM by annexin V-FITC and PI staining based flow cytometry analysis (reference value: 9.51%). The data set is classed as functional.
Data set [21] in a line: Cytotoxicity against mouse BV-2 cells assessed as cell viability incubated for 24 hrs by CCK-8 method. The data set is classed as toxicity, cell-based.
Data set [22] deals with HT-22. The experiment in a line: Anti-apoptotic activity in OGD/R mouse HT-22 cells assessed as late apoptotic cells at 5 uM by annexin V-FITC and PI staining based flow cytometry analysis (reference value: 7.26%). It is filed as functional.
For data set [23], the system named is HT-22. The experiment in a line: Anti-apoptotic activity in OGD/R mouse HT-22 cells assessed as viable cells at 1 uM by annexin V-FITC and PI staining based flow cytometry analysis (reference value: 83.09%). It is filed as functional. Particulars: read-out: Activity.
Data set [24] relates to HT-22. The experiment in a line: Anti-apoptotic activity in OGD/R mouse HT-22 cells assessed as late apoptotic cells at 10 uM by annexin V-FITC and PI staining based flow cytometry analysis (reference value: 7.26%). It is filed as functional.
The nature of data set [25]: Drug concentration in male Sprague-Dawley rat Cerebrospinal fluid at 60 mg/kg, ip measured after 2 hrs by LC-MS analysis. To be noted: read-out: Ct. The data set is classed as ADME, organism-based.
The test system of data set [26] is HT-22. The experiment in a line: Anti-apoptotic activity in OGD/R mouse HT-22 cells assessed as early apoptotic cells at 5 uM by annexin V-FITC and PI staining based flow cytometry analysis (reference value: 9.51%). The data set is classed as functional.
Data set [27] can be described thus: Cytotoxicity against mouse HT-22 cells assessed as cell viability incubated for 24 hrs by CCK-8 method. The data set is classed as toxicity, cell-based.
Data set [28] relates to HT-22. The experiment in a line: Antioxidant activity against OGD/R induced damage in mouse HT-22 cells assessed as decrease in proportion of mitochondrial depolarized cells at 5 uM by JC-1 fluorescence based flow cytometry analysis (reference value: 91.7%). The data set is classed as functional. The arrangement: scale not given: the % may be the effect or the level left.

Data set [29] is described as follows: Drug concentration in male Sprague-Dawley rat plasma at 60 mg/kg, ip measured after 0.5 hrs by LC-MS analysis. The data set is classed as ADME, organism-based.
Data set [30] in a line: Drug concentration in male Sprague-Dawley rat Cerebrospinal fluid at 60 mg/kg, ip measured after 0.5 hrs by LC-MS analysis. The data set is classed as ADME, organism-based. To be noted: read-out: Ct.
Data set [31] concerns HT-22. The experiment in a line: Anti-apoptotic activity in OGD/R mouse HT-22 cells assessed as necrotic cells at 10 uM by annexin V-FITC and PI staining based flow cytometry analysis (reference value: 0.14%). The data set is classed as functional.
Data set [32] concerns HT-22. The experiment in a line: Anti-apoptotic activity in OGD/R mouse HT-22 cells assessed as early apoptotic cells at 10 uM by annexin V-FITC and PI staining based flow cytometry analysis (reference value: 9.51%). The data set is classed as functional.
The subject of data set [33] is HT-22. The experiment in a line: Anti-apoptotic activity in OGD/R mouse HT-22 cells assessed as viable cells at 5 uM by annexin V-FITC and PI staining based flow cytometry analysis (reference value: 83.09%). It is filed as functional. To be noted: read-out: Activity.

SMILES strings stand for the structures. Converted amounts (≈) assume the structure as drawn.

The term thermodynamic solubility denotes the concentration in solution at equilibrium with solid. What is called half-life is how long it takes for the measured level to halve. In data set [1], `Cc1ccc(C(=O)NCCc2c[nH]c3ccc(N(C)C)cc23)c(O)c1.Cl` gave a solubility (thermodynamic) at 72 h of 2300 µg/mL. Moreover, the Activity entry in data set [2], in [4], in data set [5], in data set [6], in [7] and in data set [8] was “Non-Toxic” in each case. This compound also had a half-life in data set [3] of 3.96 h.

`CN1CCN(C2=Nc3cc(Cl)ccc3Nc3ccccc32)CC1` [CLOZAPINE]: the Papp in data set [9] is 8.34 ×10⁻⁶ cm/s.

Usually IC50 stands for the concentration needed to halve the response being measured. The compound `Cc1ccc(C(=O)NCCc2c[nH]c3ccc(N(C)C)cc23)c(O)c1` gave a solubility (thermodynamic) at 72 h in [1] of 40 µg/mL (≈ 119 µM). Further, the Activity was found to be 5.84% in the data set with HT-22 [10]; 49.2% in the data set with HT-22 [11]; 81.7% with HT-22 [12]; 0.15% in the data set on HT-22 [14]; 0.33% with HT-22 [19]; 5.95% with HT-22 [20]. The Activity in the data set on HT-22 [22] is recorded as 3.67%; with HT-22 [24], 3.37%; with HT-22 [26], 2.34%; with HT-22 [28], 54%; in the data set with HT-22 [31], 1.06%; in the data set with HT-22 [32] it was 2.01%. For the same compound, the results for the viability at 10 µM in the data set with HT-22 [13] and in the data set on HT-22 [15] were 93.6% and 92.7%, respectively. Further, the half-life in data set [3] is 4.56 h. Besides, the concentration at 4 h was 186 ng/mL in [16] and 20 ng/mL in data set [18]. Moreover, the values for the concentration at 2 h in [17] and in data set [25] were 633 ng/mL and 30 ng/mL, respectively. Also, in [9], the Papp worked out at 8.29 ×10⁻⁶ cm/s. Besides, the IC50 at 24 h in [21] and in data set [27] was greater than 100 µM in each case. The viability at 1 µM with HT-22 [23] was 88%. Besides, the figures for the concentration at 0.5 h in data set [29] and in data set [30] were 4120 ng/mL and 53 ng/mL, respectively. In the data set with HT-22 [33], the viability at 5 µM was found to be 93.7%.
